Assay results published in ChEMBL document CHEMBL1759976, “Carbonic anhydrase inhibitors. Inhibition of the β-class enzymes from the fungal pathogens Candida albicans and Cryptococcus neoformans with branched aliphatic/aromatic carboxylates and their derivatives” (Bioorg Med Chem Lett, 2011).

Columns and labels:
[1] = Inhibition of Cryptococcus neoformans Can2 beta-carbonic anhydrase by stopped flow CO2 hydration assay
[2] = Inhibition of Candida albicans Nce103 beta-carbonic anhydrase by stopped flow CO2 hydration assay
[3] = target: Carbonic anhydrase 1 (Homo sapiens, UniProt P00915); test: Inhibition of human cytosolic carbonic anhydrase 1 by stopped flow CO2 hydration assay
[4] = target: Carbonic anhydrase 2 (Homo sapiens, UniProt P00918)

Chain of Carbonic anhydrase 1 (P00915 whole entry): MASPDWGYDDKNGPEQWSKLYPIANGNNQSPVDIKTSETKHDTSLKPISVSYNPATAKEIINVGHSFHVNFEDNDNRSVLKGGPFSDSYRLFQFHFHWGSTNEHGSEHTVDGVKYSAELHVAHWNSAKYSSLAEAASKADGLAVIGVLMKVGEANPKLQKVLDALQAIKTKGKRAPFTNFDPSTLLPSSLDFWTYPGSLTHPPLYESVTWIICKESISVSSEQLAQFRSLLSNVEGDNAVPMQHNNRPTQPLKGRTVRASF

Compound | Ki [1] [µM] | Ki [2] [µM] | Ki [3] [µM] | Ki [4] [µM]
O=C(O)c1ccc(CCl)cc1 | 3.65 | 4.71 | – | –
COc1ccc(C(=O)NO)cc1 | 0.071 | 0.47 | – | –
CC(=O)Nc1ccc(C(=O)[O-])cc1.[Na+] | 0.32 | 0.34 | 4.04 | 7.28
O=C(O)c1ccc([N+](=O)[O-])cc1 | 0.12 | 4.85 | 8.8 | 8.56
CCCCCC(C)C(=O)O (centres undefined) | 39.3 | 11.7 | – | 110
O=C(O)c1ccc(O)cc1 | 0.0095 | 0.11 | 7.61 | –
CCC(C)CC(=O)O (centres undefined) | 34.9 | 11.1 | 104 | 281
CC(C)CCC(=O)O | – | 2.14 | – | –
N#Cc1ccc(C(=O)O)cc1 | 0.14 | 4.47 | – | –
COc1ccc(C(=O)O)cc1 [p-ANISIC ACID] | – | – | 9.06 | 8.03
CCCCC(=O)[O-].[Na+] [SODIUM VALERATE] | – | – | 55.3 | –
Nc1ccc(C(=O)O)cc1 [AMINOBENZOATE SODIUM] | 0.12 | 2.95 | 8.4 | 8.13
O=C(O)c1ccc(I)cc1 | 5.46 | 5.17 | – | –
O=C[O-].[Na+] [SODIUM FORMATE] | – | – | 1040 | –
CCCCCCC(CCCC)C(=O)O (centres undefined) | – | 10.7 | 101 | –
COc1ccc(C(N)=O)cc1 | 0.062 | 0.54 | 4.34 | 2.18
CCCC(C)C(=O)O (centres undefined) | 10.2 | 10.4 | 310 | 113
O=C(O)c1ccc(F)cc1 | 0.13 | 1.09 | 7.39 | 3.34
CC(C)C(=O)[O-].[Na+] [SODIUM ISOBUTYRATE] | 3.81 | 0.98 | 120 | 350
Nc1cccc(C(=O)O)c1 | 3.06 | 3.4 | 8.79 | 8.63

Compound | Ki [1] [µM] | Ki [2] [µM] | Ki [3] [µM] | Ki [4] [µM]
CCCCC(CC)C(=O)NO (centres undefined) | 0.29 | 3.05 | – | –
CC(=O)Nc1nnc(S(N)(=O)=O)s1 [ACETAZOLAMIDE] | 0.01 | 0.13 | – | –
CC(C)CC(=O)O [SODIUM ISOVALERATE] | 0.91 | 0.95 | 300 | 100
COc1ccc(C(=O)NN)cc1 | 0.087 | 0.81 | 7.84 | 5.75
COC(=O)c1ccc(OC)cc1 [METHYL 4-METHOXYBENZOATE] | 0.067 | 0.61 | – | –
CCCCC(C)C(=O)O (centres undefined) | 3.23 | 3.73 | 380 | 103
COc1ccc(C(=O)O)cc1 | 0.0099 | 0.15 | 9.06 | 8.03
CCCC(=O)[O-].[Na+] [SODIUM BUTYRATE] | – | – | 511 | –
CCCCC(CC)C(=O)O (centres undefined) [2-ETHYLHEXANOIC ACID] | – | – | 450 | 93
CCCCC(CC)C(N)=O (centres undefined) | 0.39 | 5.7 | – | –
CCCCC(CC)C(=O)NN (centres undefined) | 0.23 | 4.56 | – | –
O=C(O)c1ccc(S(=O)(=O)N(Cl)Cl)cc1 | 0.12 | 4.97 | 3.88 | 1.96
CCCCC(CC)CCC(=O)O (centres undefined) | 41.2 | 37.9 | 380 | –
CC(=O)[O-].[Na+] [SODIUM ACETATE] | – | – | 10.8 | –
CCC(=O)[O-].[Na+] [SODIUM PROPIONATE] | – | – | 1010 | –
CN(C)c1ccc(C(=O)O)cc1 | 0.13 | 5.2 | 3.94 | 3.33
CCCCC(CC)C(=O)OC (centres undefined) | 0.74 | 5.6 | – | –
CCC(C)CCC(=O)O (centres undefined) | 0.8 | 1.25 | 420 | 112
CCCCC(CC)C(=O)O (centres undefined) | 0.95 | 43.1 | 450 | 93
